# Assay results taken from PubChem BioAssay (NCI).
#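 1) Cells in 96-well plates. 2) Compound, 48 h, 5 concentrations. 3) Linear interpolation between surrounding doses. 4) Unreached endpoint = highest concentration. Abbreviation: GI50, concentration required for 50% inhibition of growth. TGI marks complete inhibition of growth.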
# Legend:
# Test in all cases: inhibition of tumour cell growth, NCI panel, 48 h
# 786-0 renal = system: 786-0 renal
# A498 renal = system: A498 renal
# A549 NSCLC = system: A549 NSCLC
# ACHN renal = system: ACHN renal
# BT-549 breast = system: BT-549 breast
# CAKI-1 renal = system: CAKI-1 renal
# CCRF-CEM leukemia = system: CCRF-CEM leukemia
# COLO 205 colon = system: COLO 205 colon
# DU-145 prostate = system: DU-145 prostate
# EKVX NSCLC = system: EKVX NSCLC
# HCC-2998 colon = system: HCC-2998 colon
# HCT-116 colon = system: HCT-116 colon
# HCT-15 colon = system: HCT-15 colon
# HL-60(TB) leukemia = system: HL-60(TB) leukemia
# HOP-62 NSCLC = system: HOP-62 NSCLC
# HOP-92 NSCLC = system: HOP-92 NSCLC
# HS 578T breast = system: HS 578T breast
# HT29 colon = system: HT29 colon
# IGROV1 ovarian = system: IGROV1 ovarian
# K-562 leukemia = system: K-562 leukemia
# KM12 colon = system: KM12 colon
# LOX IMVI melanoma = system: LOX IMVI melanoma
# M14 melanoma = system: M14 melanoma
# MALME-3M melanoma = system: MALME-3M melanoma
# MCF7 breast = system: MCF7 breast
# MDA-MB-231 breast = system: MDA-MB-231 breast
# MDA-MB-435 = system: MDA-MB-435
# MOLT-4 leukemia = system: MOLT-4 leukemia
# NCI-H226 lung = system: NCI-H226 lung
# NCI-H23 lung = system: NCI-H23 lung
# NCI-H460 lung = system: NCI-H460 lung
# NCI-H522 lung = system: NCI-H522 lung
# NCI/ADR-RES ovarian = system: NCI/ADR-RES ovarian
# OVCAR-3 ovarian = system: OVCAR-3 ovarian
# OVCAR-4 ovarian = system: OVCAR-4 ovarian
# OVCAR-5 ovarian = system: OVCAR-5 ovarian
# OVCAR-8 ovarian = system: OVCAR-8 ovarian
# PC-3 prostate = system: PC-3 prostate
# RPMI-8226 leukemia = system: RPMI-8226 leukemia
# RXF 393 renal = system: RXF 393 renal
# SF-268 CNS = system: SF-268 CNS
# SF-295 CNS = system: SF-295 CNS
# SF-539 CNS = system: SF-539 CNS
# SK-MEL-2 melanoma = system: SK-MEL-2 melanoma
# SK-MEL-28 melanoma = system: SK-MEL-28 melanoma
# SK-MEL-5 melanoma = system: SK-MEL-5 melanoma
# SK-OV-3 ovarian = system: SK-OV-3 ovarian
# SN12C renal = system: SN12C renal
# SNB-19 CNS = system: SNB-19 CNS
# SNB-75 CNS = system: SNB-75 CNS
# SR leukemia = system: SR leukemia
# SW-620 colon = system: SW-620 colon
# T-47D breast = system: T-47D breast
# TK-10 renal = system: TK-10 renal
# U251 CNS = system: U251 CNS
# UACC-257 melanoma = system: UACC-257 melanoma
# UACC-62 melanoma = system: UACC-62 melanoma
smiles,measurement,setting,value
CC[C@]12C=CCN3CC[C@@]4(c5ccc(OC)cc5N(C)[C@H]4[C@@](O)(C(=O)OC)[C@@H]1OC(=O)CCC(=O)O[C@H]1CC[C@H]4[C@@H]5CCC6=CC(=O)CC[C@@H]6[C@H]5CC[C@]14C)[C@@H]32,GI50,786-0 renal,1.99 µM
same,TGI,786-0 renal,> 50 µM
same,GI50,A498 renal,1.38 µM
same,TGI,A498 renal,9.42 µM
same,GI50,A549 NSCLC,1.64 µM
same,TGI,A549 NSCLC,> 50 µM
same,GI50,ACHN renal,1.57 µM
same,TGI,ACHN renal,> 50 µM
same,GI50,BT-549 breast,1.62 µM
same,TGI,BT-549 breast,9.38 µM
same,GI50,CAKI-1 renal,1.56 µM
same,TGI,CAKI-1 renal,> 50 µM
same,GI50,CCRF-CEM leukemia,1.66 µM
same,TGI,CCRF-CEM leukemia,> 50 µM
same,GI50,COLO 205 colon,0.941 µM
same,TGI,COLO 205 colon,1.94 µM
same,GI50,DU-145 prostate,2.73 µM
same,TGI,DU-145 prostate,> 50 µM
same,GI50,EKVX NSCLC,1.7 µM
same,TGI,EKVX NSCLC,> 50 µM
same,GI50,HCC-2998 colon,1.98 µM
same,TGI,HCC-2998 colon,> 50 µM
same,GI50,HCT-116 colon,1.55 µM
same,TGI,HCT-116 colon,> 50 µM
same,GI50,HCT-15 colon,1.51 µM
same,TGI,HCT-15 colon,> 50 µM
same,GI50,HL-60(TB) leukemia,1.07 µM
same,TGI,HL-60(TB) leukemia,2.57 µM
same,GI50,HOP-62 NSCLC,2.4 µM
same,TGI,HOP-62 NSCLC,> 50 µM
same,GI50,HOP-92 NSCLC,1.07 µM
same,TGI,HOP-92 NSCLC,4.08 µM
same,GI50,HS 578T breast,2.38 µM
same,TGI,HS 578T breast,> 50 µM
same,GI50,HT29 colon,1.6 µM
same,TGI,HT29 colon,11.4 µM
same,GI50,IGROV1 ovarian,0.973 µM
same,TGI,IGROV1 ovarian,3.13 µM
same,GI50,K-562 leukemia,1.82 µM
same,TGI,K-562 leukemia,> 50 µM
same,GI50,KM12 colon,1.88 µM
same,TGI,KM12 colon,> 50 µM
same,GI50,LOX IMVI melanoma,1.51 µM
same,TGI,LOX IMVI melanoma,4.63 µM
same,GI50,M14 melanoma,1.92 µM
same,TGI,M14 melanoma,> 50 µM
same,GI50,MALME-3M melanoma,1.64 µM
same,TGI,MALME-3M melanoma,21.1 µM
same,GI50,MCF7 breast,1.52 µM
same,TGI,MCF7 breast,> 50 µM
same,GI50,MDA-MB-231 breast,2.21 µM
same,TGI,MDA-MB-231 breast,> 50 µM
same,GI50,MDA-MB-435,1.93 µM
same,TGI,MDA-MB-435,> 50 µM
same,GI50,MOLT-4 leukemia,1.55 µM
same,TGI,MOLT-4 leukemia,> 50 µM
same,GI50,NCI-H226 lung,2.07 µM
same,TGI,NCI-H226 lung,> 50 µM
same,GI50,NCI-H23 lung,1.98 µM
same,TGI,NCI-H23 lung,> 50 µM
same,GI50,NCI-H460 lung,3.01 µM
same,TGI,NCI-H460 lung,> 50 µM
same,GI50,NCI-H522 lung,1.8 µM
same,TGI,NCI-H522 lung,> 50 µM
same,GI50,NCI/ADR-RES ovarian,1.69 µM
same,TGI,NCI/ADR-RES ovarian,> 50 µM
same,GI50,OVCAR-3 ovarian,1.73 µM
same,TGI,OVCAR-3 ovarian,31.9 µM
same,GI50,OVCAR-4 ovarian,1.79 µM
same,TGI,OVCAR-4 ovarian,> 50 µM
same,GI50,OVCAR-5 ovarian,1.9 µM
same,TGI,OVCAR-5 ovarian,> 50 µM
same,GI50,OVCAR-8 ovarian,2.24 µM
same,TGI,OVCAR-8 ovarian,> 50 µM
same,GI50,PC-3 prostate,0.996 µM
same,TGI,PC-3 prostate,> 50 µM
same,GI50,RPMI-8226 leukemia,1.07 µM
same,TGI,RPMI-8226 leukemia,3.11 µM
same,GI50,RXF 393 renal,1.33 µM
same,TGI,RXF 393 renal,4.21 µM
same,GI50,SF-268 CNS,2.17 µM
same,TGI,SF-268 CNS,> 50 µM
same,GI50,SF-295 CNS,1.69 µM
same,TGI,SF-295 CNS,> 50 µM
same,GI50,SF-539 CNS,1.75 µM
same,TGI,SF-539 CNS,7.21 µM
same,GI50,SK-MEL-2 melanoma,1.24 µM
same,TGI,SK-MEL-2 melanoma,2.85 µM
same,GI50,SK-MEL-28 melanoma,2.17 µM
same,TGI,SK-MEL-28 melanoma,> 50 µM
same,GI50,SK-MEL-5 melanoma,0.99 µM
same,TGI,SK-MEL-5 melanoma,2.1 µM
same,GI50,SK-OV-3 ovarian,2.04 µM
same,TGI,SK-OV-3 ovarian,> 50 µM
same,GI50,SN12C renal,1.64 µM
same,TGI,SN12C renal,> 50 µM
same,GI50,SNB-19 CNS,2.31 µM
same,TGI,SNB-19 CNS,> 50 µM
same,GI50,SNB-75 CNS,1.08 µM
same,TGI,SNB-75 CNS,31.4 µM
same,GI50,SR leukemia,1.52 µM
same,TGI,SR leukemia,> 50 µM
same,GI50,SW-620 colon,2.12 µM
same,TGI,SW-620 colon,> 50 µM
same,GI50,T-47D breast,1.79 µM
same,TGI,T-47D breast,> 50 µM
same,GI50,TK-10 renal,1.91 µM
same,TGI,TK-10 renal,> 50 µM
same,GI50,U251 CNS,1.91 µM
same,TGI,U251 CNS,> 50 µM
same,GI50,UACC-257 melanoma,2.65 µM
same,TGI,UACC-257 melanoma,> 50 µM
same,GI50,UACC-62 melanoma,1.12 µM
same,TGI,UACC-62 melanoma,3.13 µM
